How the values were obtained:
pepsin = pepsin (Sus scrofa, UniProt P00791); test: Detection of phosphoproteins in SDS-polyacrylamide gels with binding solution; settings: monophosphorylated protein, binding solution with gallium chloride, SDS polyacrylamide mini-gel
Method: (§1) Proteins were loaded in two-fold dilution series on SDS polyacrylamide mini-gels from 2 ng-1000 ng; each protein sample was done in series in four replicate gels. The phosphoproteins were α-casein (7 or 8 phosphates); dephosphorylated α-casein (1 or 2 phosphates); β-casein (5 phosphates); ovalbumin (2 phosphates) and pepsin (1 phosphate). BSA contains no phosphates and was used as a negative control.
(§2) Phosphoproteins were separated by SDS-polyacrylamide gel electrophoresis utilizing a 4% T, 2.6% C stacking gel, pH 6.8 and 13% T, 2.6% C separating gel, and pH 8.8, according to standard procedures. % T is the total monomer concentration (acrylamide+crosslinker) expressed in grams per 100 mL and % C is the percentage crosslinker (e.g., N,N′-methylene-bis-acrylamide, N,N′-diacryloylpiperazine or other suitable agent). The separating gels were 8 cm wide by 5 cm high and […] in thickness. After electrophoresis, the gels were fixed by immersing them in 100 mL 45% methanol and 5% acetic acid for 90 minutes. The gels were washed twice in water for a total of 30 minutes. The gels were then added to a binding solution of the invention (Example 1E) and incubated for 120 minutes at room temperature with gentle orbital shaking, typically 50 rpm. The binding buffer contained 50 mM NaOAc (pH 4.0), 250 mM sodium chloride, 20% v/v 1,2-propanediol, 1 μM gallium chloride. […]

β-casein = target: T1, β-casein (Bos taurus, UniProt P02666); test: as above; settings: pentaphosphorylated protein, binding solution with gallium chloride, SDS polyacrylamide mini-gel
T1 sequence (P02666 16-224): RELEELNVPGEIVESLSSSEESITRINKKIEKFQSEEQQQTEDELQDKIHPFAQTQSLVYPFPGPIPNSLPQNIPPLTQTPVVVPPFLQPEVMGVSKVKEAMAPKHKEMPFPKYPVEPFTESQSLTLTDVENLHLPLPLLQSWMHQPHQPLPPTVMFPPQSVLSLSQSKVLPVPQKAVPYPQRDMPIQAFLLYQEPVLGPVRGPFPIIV
Method: as §1, §2

Chain of pepsin (P00791 60-385): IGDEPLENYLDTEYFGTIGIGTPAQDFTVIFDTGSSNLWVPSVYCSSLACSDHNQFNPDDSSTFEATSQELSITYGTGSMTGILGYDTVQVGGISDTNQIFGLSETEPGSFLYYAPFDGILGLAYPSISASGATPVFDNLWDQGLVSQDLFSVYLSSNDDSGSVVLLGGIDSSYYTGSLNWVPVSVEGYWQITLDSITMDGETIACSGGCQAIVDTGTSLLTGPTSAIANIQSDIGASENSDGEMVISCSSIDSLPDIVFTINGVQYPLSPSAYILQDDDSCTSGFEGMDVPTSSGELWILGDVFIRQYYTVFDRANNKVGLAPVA

Rhod-5F [Compound 2]
amount detectable in gel (pepsin): 8 ng | amount detectable in gel (β-casein): 1 to 2 ng

— patent US7445894B2, “Compositions and methods for detection and isolation of phosphorylated molecules” (priority 2002, dated 2008)
